{
  "source": "paper PMC7835927",
  "about": "“Natural Polyhydroxy Flavonoids, Curcuminoids, and Synthetic Curcumin Analogs as α7 nAChRs Positive Allosteric Modulators” (International Journal of Molecular Sciences, 2021)",
  "key": {"[1]": {"molecular_target": "T1, human α7 nAChRs (Homo sapiens, UniProt P36544)", "T1 construct": "expressed in transfected cells; host or cells: Xenopus laevis oocytes injected with in vitro transcribed capped cRNA (pSP64T derivatives)", "T1 sequence (P36544 23-502)": "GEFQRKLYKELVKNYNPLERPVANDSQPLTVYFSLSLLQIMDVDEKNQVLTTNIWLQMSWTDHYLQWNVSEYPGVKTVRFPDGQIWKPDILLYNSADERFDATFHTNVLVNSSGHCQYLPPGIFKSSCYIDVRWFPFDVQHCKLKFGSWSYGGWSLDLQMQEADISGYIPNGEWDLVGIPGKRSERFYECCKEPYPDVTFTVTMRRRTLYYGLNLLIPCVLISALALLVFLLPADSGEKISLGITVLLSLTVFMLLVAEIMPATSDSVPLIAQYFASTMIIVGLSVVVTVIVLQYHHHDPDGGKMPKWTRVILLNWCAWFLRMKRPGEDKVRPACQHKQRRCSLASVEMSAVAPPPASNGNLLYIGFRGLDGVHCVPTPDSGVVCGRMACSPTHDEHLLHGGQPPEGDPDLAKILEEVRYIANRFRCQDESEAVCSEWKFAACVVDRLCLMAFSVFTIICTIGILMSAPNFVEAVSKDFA", "assay": "Two-electrode voltage-clamp in Xenopus oocytes expressing human α7 nAChRs: potentiation of ACh-evoked currents", "assay_type": "cell-based", "conditions": "for nH of ACh concentration-response curve / Imax of ACh concentration-response curve / maximal potentiating effect: Hill fit; for activity at 10 µM: read-out: % ± s.e. Current vs. ACh [200 µM]; for % ± s.e. Current vs. ACh [200 µM]: Table 1; for % ± s.e. Current vs. ACh [200 µM] / % ± s.e. Current Vs. ACh [200 µM]: compound 10 µM co-applied with 200 µM ACh, −80 mV, normalized to ACh alone, 6–10 oocytes; for maximal potentiating effect: concentration-response, co-applied with ACh 200 µM, estimated; for % ± s.e. Current Vs. ACh [200 µM]: Table 2; for PAM properties / effect on ACh-induced currents, in words: 10 µM screening", "experimental": "The obtained compounds were screened to determine their capacity to modulate the α7 nAChR activity (Table 2).\nAll human nAChR cDNAs were cloned in derivatives of the pSP64T vector containing part of the pBluescript polylinker. Capped mRNA was synthesized in vitro using SP6 RNA polymerase, the mMESSAGEmMACHINE kit from Ambion (Thermo Fisher Scientific, Madrid, Spain), and the pSP64T derivatives mentioned above. Defoliculated Xenopus laevis oocytes were injected with 5 ng of each subunit cRNA in 50 nL of sterile water. All experiments were performed within 2–3 days after cRNA injection. […] Barium, instead of calcium, was used as the extracellular divalent cation to avoid the presence of calcium-activated chloride currents. […] All experiments were performed at 22 °C. The holding potential was usually −80 mV. Current records were measured with Clampfit 10.0 (MDS Analytical Technologies, Sunnyvale, CA, USA). […] Data are expressed as mean ± SEM. All chemicals were purchased from Sigma-Aldrich (St. Louis, MO, USA)."}, "[2]": {"system": "α7 nAChRs", "conditions": "cited from earlier work; for reported profile on ACh-evoked α7 nAChR currents in oocytes: oocytes expressing α7 nAChRs"}, "[3]": {"assay": "Solubility as noted in the concentration-response experiments", "assay_type": "physicochemical", "conditions": "hindered the use of higher concentrations in the curves", "experimental": "Figure 1 Characterization of curcumin (12) and two curcuminoids (compounds 13 and 14). (a–c) Ionic currents recorded in representative oocytes expressing human α7 nAChRs. […] All currents were recorded at a holding potential of –80 mV. […] Continuous lines represent the fit to the Hill equation. […] Thus, maximal potentiating effects were estimated as 11 ± 3-, 5.5 ± 0.3-, and 5.5 ± 1.0-fold for compounds 12, 13, and 14, respectively. […] Data were taken from 3–7 oocytes from at least 2 donors."}, "[4]": {"assay": "Chemical stability in H2O/acetonitrile 20/80 checked by HPLC", "assay_type": "physicochemical", "conditions": "period of two months", "text": "To discard any possible artefacts due to decomposition of the compounds in solution, the chemical stability of the best compounds 17, 23, and 25 was checked in aqueous mixtures of H2O/acetonitrile 20/80 for a period of two months."}, "[5]": {"conditions": "read-out: EC50 of potentiating effect"}, "[6]": {"conditions": "in the presence of compound 13 vs absence"}},
  "note": "Where two headings read alike, the source gives them in different places.",
  "data": [
    {"compound": "CC(=O)OCC[N+](C)(C)C", "note": "[ACh, acetylcholine]", "values": [
      {"measurement": "nH of ACh concentration-response curve", "setting": "[1]; control conditions (ACh alone)", "result": 1.25},
      {"measurement": "Imax of ACh concentration-response curve", "setting": "[1]; control conditions (ACh alone), normalized to peak current with 1 mM ACh", "result": 1.25}
    ]},
    {"compound": "O=c1cc(-c2ccc(O)cc2)oc2cc(O)cc(O)c12", "note": "[Compound 1, Apigenin]", "values": [
      {"measurement": "activity at 10 µM", "setting": "[1]", "result": "108 ± 4", "unit": "%"}
    ]},
    {"compound": "O=c1c(O)c(-c2ccc(O)c(O)c2)oc2cc(O)cc(O)c12", "note": "[Compound 2, Quercetin]", "values": [
      {"measurement": "% ± s.e. Current vs. ACh [200 µM]", "setting": "[1]", "result": "130 ± 10", "unit": "%"},
      {"measurement": "reported profile on ACh-evoked α7 nAChR currents in oocytes", "setting": "[2]", "result": "PAM profile"}
    ]},
    {"compound": "O=c1cc(-c2ccc(O)c(O)c2)oc2cc(O)cc(O)c12", "note": "[Compound 3, Luteolin]", "values": [
      {"measurement": "activity at 10 µM", "setting": "[1]", "result": "125 ± 5.5", "unit": "%"}
    ]},
    {"compound": "O=c1c(-c2ccc(O)cc2)coc2cc(O)cc(O)c12", "note": "[Compound 4, Genistein]", "values": [
      {"measurement": "activity at 10 µM", "setting": "[1]", "result": "154 ± 10", "unit": "%"},
      {"measurement": "reported profile on ACh-evoked α7 nAChR currents in oocytes", "setting": "[2]", "result": "PAM profile"}
    ]},
    {"compound": "O=c1c(O)c(-c2ccc(O)c(O)c2)oc2c(O)c(O)cc(O)c12", "note": "[Compound 5, Gossypetin]", "values": [
      {"measurement": "activity at 10 µM", "setting": "[1]", "result": "115 ± 2", "unit": "%"}
    ]},
    {"compound": "O=c1c(O)c(-c2ccc(O)cc2)oc2cc(O)cc(O)c12", "note": "[Compound 6, Kaempferol]", "values": [
      {"measurement": "activity at 10 µM", "setting": "[1]", "result": "155 ± 5", "unit": "%"}
    ]},
    {"compound": "O=c1c(O)c(-c2cc(O)c(O)c(O)c2)oc2cc(O)cc(O)c12", "note": "[Compound 7, Myricetin]", "values": [
      {"measurement": "activity at 10 µM", "setting": "[1]", "result": "97 ± 6", "unit": "%"}
    ]},
    {"compound": "O=C1C[C@@H](c2ccc(O)c(O)c2)Oc2cc(O)cc(O)c21", "note": "[Compound 8, Eriodictyol]", "values": [
      {"measurement": "activity at 10 µM", "setting": "[1]", "result": "108 ± 2.5", "unit": "%"}
    ]},
    {"compound": "O=C1C[C@@H](c2ccc(O)cc2)Oc2cc(O)cc(O)c21", "note": "[Compound 9, Naringenin]", "values": [
      {"measurement": "activity at 10 µM", "setting": "[1]", "result": "105 ± 3", "unit": "%"}
    ]},
    {"compound": "O=C1c2c(O)cc(O)cc2OC(c2ccc(O)c(O)c2)C1O", "note": "(stereo not drawn) [Compound 10, Taxifolin]", "values": [
      {"measurement": "activity at 10 µM", "setting": "[1]", "result": "107 ± 5.5", "unit": "%"}
    ]},
    {"compound": "O=C(CCc1ccc(O)cc1)c1c(O)cc(O)cc1O", "note": "[Compound 11, Phloretin]", "values": [
      {"measurement": "activity at 10 µM", "setting": "[1]", "result": "231 ± 0.5", "unit": "%"}
    ]},
    {"compound": "COc1cc(/C=C/C(=O)CC(=O)/C=C/c2ccc(O)c(OC)c2)ccc1O", "note": "[Compound 12, Curcumin]", "values": [
      {"measurement": "maximal potentiating effect", "setting": "[1]", "result": "11 ± 3", "unit": "fold"},
      {"measurement": "enhancement of ACh-induced currents", "setting": "[1]; maximal effect from concentration-response, only approximated", "result": "~1100", "unit": "%"},
      {"measurement": "activity at 10 µM", "setting": "[1]", "result": "148 ± 43", "unit": "%"},
      {"measurement": "EC50", "setting": "[1]; [5]", "result": "85 ± 35", "unit": "µM"},
      {"measurement": "solubility, in words", "setting": "[3]", "result": "Limited solubility"},
      {"measurement": "reported type of α7 nAChR modulation", "setting": "[2]", "result": "Type II PAM"}
    ]},
    {"compound": "COc1cc(/C=C/C(O)=C/C(=O)/C=C/c2ccc(O)cc2)ccc1O", "note": "[Compound 13, Demethoxycurcumin]", "values": [
      {"measurement": "EC50", "setting": "[1]", "result": 4.9, "unit": "µM"},
      {"measurement": "% ± s.e. Current vs. ACh [200 µM]", "setting": "[1]", "result": "408 ± 18", "unit": "%"},
      {"measurement": "maximal potentiating effect", "setting": "[1]", "result": "5.5 ± 0.3", "unit": "fold"},
      {"measurement": "nH of ACh concentration-response curve", "setting": "[1]; in the presence of 3 µM 13", "result": 2.36},
      {"measurement": "Imax of ACh concentration-response curve", "setting": "[1]; in the presence of 3 µM 13, normalized to control peak current with 1 mM ACh", "result": 2.70},
      {"measurement": "increase in apparent efficacy of ACh", "setting": "[1]; [6]", "result": 2, "unit": "fold"},
      {"measurement": "leftward shift of ACh dose-response curve", "setting": "[1]; [6]", "result": 3, "unit": "fold"},
      {"measurement": "activity at 10 µM", "setting": "[1]", "result": 408, "unit": "%"},
      {"measurement": "solubility, in words", "setting": "[3]", "result": "Limited solubility"}
    ]},
    {"compound": "O=C(/C=C/c1ccc(O)cc1)CC(=O)/C=C/c1ccc(O)cc1", "note": "[Compound 14, Bisdemethoxycurcumin]", "values": [
      {"measurement": "% ± s.e. Current vs. ACh [200 µM]", "setting": "[1]", "result": "469 ± 42", "unit": "%"},
      {"measurement": "maximal potentiating effect", "setting": "[1]", "result": "5.5 ± 1.0", "unit": "fold"},
      {"measurement": "activity at 10 µM", "setting": "[1]", "result": 469, "unit": "%"},
      {"measurement": "EC50", "setting": "[1]; [5]", "result": "6.9 ± 3.1", "unit": "µM"},
      {"measurement": "solubility, in words", "setting": "[3]", "result": "Limited solubility"}
    ]},
    {"compound": "COc1ccc(/C=C/C(=O)/C=C(O)/C=C/c2ccc(OC)cc2OC)c(OC)c1", "note": "[Compound 17, (1E,4Z,6E)-1,7-Bis(2,4-dimethoxyphenyl)-5-hydroxyhepta-1,4,6-trien-3-one]", "values": [
      {"measurement": "chemical stability in solution (HPLC retention times and purity)", "setting": "[4]", "result": "no alteration on the retention times and purity"}
    ]},
    {"compound": "COc1ccc(CCC(=O)/C=C(\\O)CCc2ccc(OC)cc2OC)c(OC)c1", "note": "[Compound 23, (Z)-1,7-Bis(2,4-dimethoxyphenyl)-5-hydroxyhept-4-en-3-one]", "values": [
      {"measurement": "% ± s.e. Current Vs. ACh [200 µM]", "setting": "[1]", "result": "498 ± 7", "unit": "%"},
      {"measurement": "Maximal activation over the control", "setting": "[1]; already observed at 1 µM, ACh 200 µM", "result": "about 3 fold"},
      {"measurement": "EC50", "setting": "[1]; [5]", "result": "0.44 ± 0.28", "unit": "µM"},
      {"measurement": "chemical stability in solution (HPLC retention times and purity)", "setting": "[4]", "result": "no alteration on the retention times and purity"}
    ]},
    {"compound": "O=C(/C=C(\\O)CCc1ccc(O)cc1O)CCc1ccc(O)cc1O", "note": "[Compound 25, (Z)-1,7-Bis(2,4-dihydroxyphenyl)-5-hydroxyhept-4-en-3-one]", "values": [
      {"measurement": "% ± s.e. Current Vs. ACh [200 µM]", "setting": "[1]", "result": "251 ± 24", "unit": "%"},
      {"measurement": "chemical stability in solution (HPLC retention times and purity)", "setting": "[4]", "result": "no alteration on the retention times and purity"}
    ]},
    {"compound": "(1E, 4Z, 6E) -1-(2,4-Dimethoxyphenyl)-7-(2-fluoro-4-methoxyphenyl)-5-hydroxyhepta-1,4,6 -trien-3-one [Compound 22]", "values": [
      {"measurement": "PAM properties / effect on ACh-induced currents, in words", "setting": "[1]; ACh 200 µM", "result": "increases them only slightly"},
      {"measurement": "% ± s.e. Current Vs. ACh [200 µM]", "setting": "[1]", "result": "153 ± 17", "unit": "%"}
    ]},
    {"compound": "(1E, 4Z, 6E)-1-(2,4-Dimethoxyphenyl)-7-(2,5-dimethoxyphenyl)-5-hydroxyhepta-1,4,6-trien-3-one [Compound 21]", "values": [
      {"measurement": "PAM properties / effect on ACh-induced currents, in words", "setting": "[1]; ACh 200 µM", "result": "No significant PAM properties"},
      {"measurement": "% ± s.e. Current Vs. ACh [200 µM]", "setting": "[1]", "result": "107 ± 4", "unit": "%"}
    ]},
    {"compound": "(Z)-1-(2,4-Dimethoxyphenyl)-7-(2,5-dimethoxyphenyl)-5-hydroxyhept-4-en-3-one [Compound 24]", "values": [
      {"measurement": "PAM properties / effect on ACh-induced currents, in words", "setting": "[1]; ACh 200 µM", "result": "No significant PAM properties"},
      {"measurement": "% ± s.e. Current Vs. ACh [200 µM]", "setting": "[1]", "result": "53.5 ± 3.5", "unit": "%"}
    ]}
  ]
}
